Here are results for 4 substances from patent publication US7132506B2, “Peptide having osteogenetic activity and osteogenetic accelerator containing the same” (Kyocera Corporation, priority 2001, dated 2006).

The test system of this assay is C3H10T1/2 cell strain. The assay is described as follows: Induction of alkali phosphatase activity in C3H10T1/2 cell strain. The note with it: 200 μg peptide solidified per well by air drying; three days of incubation; blank wells 0.24±0.11. The format is cell-based, mouse. How it is done: Undifferentiated mouse mesenchymal cell strain C3H10T1/2 (purchased from Dai-Nippon Seiyaku KK, Japan) was dispersed in Eagle's MEM medium containing 10% of fetal bovine serum in a cell concentration of 3.75×10^4 cells/mL, and thus a cell culture liquid was prepared.
Three days after the start of incubation, a culture supernatant was removed, and the wells were washed once with phosphate buffer (PBS: 10 mM, containing 0.15 M of common salt, pH 7.4). To each well of the 96-hole plates, 100 μL of Tris buffer (20 mM, pH 8.5) containing 1% Triton X-100 was added and allowed to stand for 30 minutes to dissolve cells. With respect to 100 μL of the resulting cell solution, 100 μL of Tris buffer (1.5 M, containing 1 mM of ZnCl2 and 1 mM of MgCl2, pH 8.5) containing 7.5 mM of p-nitrophenyl phosphate (purchased from Wako Junyaku Kogyo, Japan) were added. Increase in absorbency at 405 nm was measured to determine the alkaline phosphatase activity in the cell solution. The concentration of protein in the cell solution was also determined using a BCA assay kit (produced by Pierce).
As to “Example 1: Peptide having amino acid sequence SEQ ID NO:4 with an amino group at the N terminal and a carboxyl group at the C terminal (NSVNSKIPKACSVPTELSAISTLYL)”, the alkaline phosphatase activity was 1.3±0.9 nmol/min·mg-protein. For the substance “Example 2: Peptide having amino acid sequence SEQ ID NO:4 with an amino group at the N terminal and an amide group at the C terminal (H-NSVNSKIPKACSVPTELSAISTLYL-NH2)”, the alkaline phosphatase activity was 1.5±0.6 nmol/min·mg-protein. In the case of “Example 3: Peptide having amino acid sequence SEQ ID NO:5 with an amino group at the N terminal and an amide group at the C terminal (H-NSVNSKIPKASSVPTELSAISTLYL-NH2)”, the alkaline phosphatase activity is 1.5±0.8 nmol/min·mg-protein.

For the substance “Example 4: Peptide having amino acid sequence SEQ ID NO:6 with an amino group at the N terminal and an amide group at the C terminal (H-KIPKASSVPTELSAISTLYL-NH2)”, the alkaline phosphatase activity turned out to be 1.7±0.1 nmol/min·mg-protein.
